Results taken from ChEMBL document CHEMBL1201862, “PubChem BioAssay data set” (2004).
Blank lines part the entries; values can stand above or below the compound they belong to. The source made the active and inactive calls.

How the values were obtained:
[1] = blockers of HIV-1 envelope-mediated cell-cell fusion – cherry-pick, dose response (AID 652057); format: functional, cell-based
[2] = HIV-1 AD8 envelope cell-cell fusion blockers – cherry-pick, dose response (AID 652062); format: functional, cell-based;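 further: luciferase signal from cell-cell fusion driven by HIV-1 clade B AD8 Env; potency is for inhibitors of fusion seen as a drop in luminescence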
P388/ADR = assay: cells; format: functional; details: Mus musculus
SN12K1 = assay: cells; format: functional; details: Homo sapiens
P388 = assay: cells; format: functional; details: Mus musculus
[3] = viability of PTEN-deleted HCT116 cells – cell-based, HCT116 PTEN knockout, dose response (AID 1047); format: functional;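 further: HCT116 colon tumor cells with PTEN knocked out; cells exposed to compound for 60 hours before readout; potency for loss of cell viability measured by luminescence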
[4] = viability of HCT116 lacking mutant beta-catenin – cell-based, human colon tumor, dose response (AID 1045); format: functional;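 further: HCT116 colon tumor cells with beta catenin knocked out; cells exposed to compound for 60 hours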
[5] = molecular target: T1, High affinity choline transporter 1 (Homo sapiens, UniProt Q9GZV3); assay: human choline transporter blockers, potency – cell-based, 5-point CRC, membrane potential dye, dose response (AID 504840); format: functional
T1 sequence (Q9GZV3 whole entry): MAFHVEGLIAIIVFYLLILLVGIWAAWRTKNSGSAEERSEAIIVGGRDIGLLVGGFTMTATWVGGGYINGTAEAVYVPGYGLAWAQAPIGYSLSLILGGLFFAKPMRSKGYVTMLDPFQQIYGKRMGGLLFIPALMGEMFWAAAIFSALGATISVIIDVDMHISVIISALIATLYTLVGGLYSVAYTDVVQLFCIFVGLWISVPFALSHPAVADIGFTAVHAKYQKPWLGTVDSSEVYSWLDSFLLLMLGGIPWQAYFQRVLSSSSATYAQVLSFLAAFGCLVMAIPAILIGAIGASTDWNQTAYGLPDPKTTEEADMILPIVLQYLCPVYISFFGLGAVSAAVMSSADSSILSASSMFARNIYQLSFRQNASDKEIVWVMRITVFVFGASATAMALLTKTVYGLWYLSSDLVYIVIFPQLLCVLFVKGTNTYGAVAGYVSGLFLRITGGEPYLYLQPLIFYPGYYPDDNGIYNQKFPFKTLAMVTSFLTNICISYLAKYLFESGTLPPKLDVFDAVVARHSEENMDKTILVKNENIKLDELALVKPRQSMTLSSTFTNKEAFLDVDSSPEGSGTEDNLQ

[6] = molecular target: T2, Short transient receptor potential channel 4 (Mus musculus, UniProt Q9QUQ5); assay: block of DAMGO-driven TRPC4 calcium entry – cell-based, HEK293 TRPC4/mu-opioid, Fluo-4 calcium, dose response (AID 434942); format: functional;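 further: potency of inhibitors blocking the TRPC4 calcium response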
T2 sequence (Q9QUQ5 whole entry): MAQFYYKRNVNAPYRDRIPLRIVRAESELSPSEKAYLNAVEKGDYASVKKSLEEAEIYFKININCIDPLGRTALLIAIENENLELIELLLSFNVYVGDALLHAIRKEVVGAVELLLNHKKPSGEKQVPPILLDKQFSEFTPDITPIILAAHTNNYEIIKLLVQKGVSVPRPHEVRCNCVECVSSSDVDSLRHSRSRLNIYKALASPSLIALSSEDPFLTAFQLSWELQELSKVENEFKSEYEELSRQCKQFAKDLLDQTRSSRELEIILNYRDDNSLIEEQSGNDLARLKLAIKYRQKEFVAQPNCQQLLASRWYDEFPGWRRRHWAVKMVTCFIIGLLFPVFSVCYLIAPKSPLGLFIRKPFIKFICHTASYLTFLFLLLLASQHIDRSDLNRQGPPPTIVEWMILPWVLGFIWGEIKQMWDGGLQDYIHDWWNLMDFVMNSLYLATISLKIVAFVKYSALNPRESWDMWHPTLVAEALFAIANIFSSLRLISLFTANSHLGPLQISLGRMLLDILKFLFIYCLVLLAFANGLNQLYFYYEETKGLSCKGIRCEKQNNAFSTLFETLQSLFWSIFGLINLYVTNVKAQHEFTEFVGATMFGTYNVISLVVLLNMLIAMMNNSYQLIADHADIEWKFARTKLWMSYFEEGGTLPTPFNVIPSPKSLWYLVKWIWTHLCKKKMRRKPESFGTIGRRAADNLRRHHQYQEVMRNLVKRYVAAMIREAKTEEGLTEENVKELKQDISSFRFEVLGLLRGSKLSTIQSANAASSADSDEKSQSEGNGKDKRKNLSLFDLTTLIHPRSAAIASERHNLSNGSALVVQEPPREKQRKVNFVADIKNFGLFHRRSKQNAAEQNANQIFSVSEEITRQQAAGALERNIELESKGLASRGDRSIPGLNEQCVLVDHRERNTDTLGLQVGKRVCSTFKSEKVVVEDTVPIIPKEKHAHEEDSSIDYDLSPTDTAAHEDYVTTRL

[7] = Trypanosoma cruzi growth suppression in host cells – NIH3T3 host cells, beta-gal luminescence, confirmation (AID 2044); format: functional, cell-based;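 further: intracellular parasites grown in NIH/3T3 mouse fibroblasts as host cells; luminescent beta-galactosidase reporter signal from transgenic T. cruzi replicating inside host cells; inhibitors lower the luminescence signal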
[8] = NIH3T3 cell viability loss – ATP luminescence, mouse fibroblasts, counter-screen, dose response (AID 2010); format: functional, cell-based;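 further: cells exposed to compound for about 90 hours before reading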
[9] = reduction of Shn3 3'UTR-driven luciferase in osteoblasts – cell-based, Clone20 osteoblasts, firefly luciferase, cherry-picked, dose response (AID 624132); format: functional;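 further: firefly luciferase luminescence from reporter carrying the Shn3 3'UTR in osteoblasts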
[10] = loss of viability in HepG2 cells – cell-based, CellTiter-Glo, cherry-picked, cytotoxicity control for Shn3 inhibitor project, dose response (AID 624134); format: functional
[11] = non-specific 3'UTR reporter inhibition in Clone20-Shn3RL – cell-based, Renilla luciferase, cherry-picked, counter-screen for Shn3 inhibitor project, dose response (AID 624133); format: functional

Compound: COc1ccc(S(=O)(=O)Nc2ccc3c(c2)CC(=O)N([C@H](C)CO)C[C@H](C)[C@H](CN(C)S(=O)(=O)c2cccs2)O3)cc1
AC50 [1]: 0.509 µM (active)
AC50 [2]: 3.88 µM (active)

Compound: Cc1c(N)nc([C@H](CC(N)=O)NC[C@H](N)C(N)=O)nc1C(=O)N[C@H](C(=O)N[C@H](C)[C@@H](O)[C@H](C)C(=O)N[C@H](C(=O)NCCc1nc(-c2nc(C(=O)NCCC[S+](C)C)cs2)cs1)[C@@H](C)O)C(OC1OC(CO)C(O)C(O)C1OC1OC(CO)C(O)C(OC(N)=O)C1O)c1c[nH]cn1 (stereo partly drawn)
GI50 (P388/ADR): 3.49 µM (inactive)
GI50 (SN12K1): 0.19 µM (active)
GI50 (P388): 2.11 µM (inactive)

Compound: CCOc1ccc(NCc2nnc(SCC(=O)Nc3nc(-c4ccccc4)cs3)n2-c2ccccc2)cc1
EC50 [3]: 3.65 µM (active)
EC50 [4]: 3.28 µM (active)

IC50 [5]: 13.8 µM (active)
Compound: Cc1nn(Cc2ccccc2Cl)c(C)c1NC(=O)c1noc2c1CCCCC2

IC50 [5]: 14.5 µM (active)
Compound: COc1ccc(-n2nnnc2CNC(=O)c2ccc3ccccc3c2)cc1

EC50 [6]: 0.944 µM (active)
Compound: COc1cccc(C(CNC(=O)C(c2ccccc2)c2ccccc2)N(C)C)c1 (stereo not drawn)

Compound: CCn1c(N2CCN(S(=O)(=O)c3ccc(Cl)cc3)CC2)nc2ccccc21
EC50 [7]: 1.55 µM (active)
EC50 [8]: > 60 µM (not active)
AC50 [9]: 9.14 µM (active)
AC50 [10]: 58.3 µM (active)
AC50 [11]: 9.17 µM (active)

Compound: CC1CC(C)(C)CC2(C1)NC(=O)N(CC(=O)N1CCN(Cc3ccc(C#N)cc3)CC1)C2=O (stereo not drawn)
AC50 [9]: 1.47 µM (active)
AC50 [10]: 2.54 µM (active)
AC50 [11]: 0.65 µM (active)

Compound: COc1cc(/C=C/C(=O)O)ccc1C(=O)O/C=C/c1ccccc1
GI50 (P388/ADR): 14.1 µM (inactive)
GI50 (SN12K1): > 100 µM (inactive)
GI50 (P388): 25.6 µM (inactive)

Compound: CC1[C@@]2(CCC(C)(C)O2)O[C@@H]2C=C3C4CCC5Cc6nc7c(nc6C[C@@]5(C)C4C[C@H](O)[C@@]3(C)[C@]12O)CC1CCC2C3=C[C@H]4O[C@@]5(O[C@@](C)(CO)C[C@@H]5O)C(C)[C@@]4(O)[C@]3(C)[C@@H](O)CC2[C@]1(C)C7 (stereo partly drawn)
GI50 (P388/ADR): 0.00112 µM (active)
GI50 (SN12K1): 0.000365 µM (active)
GI50 (P388): 0.000365 µM (active)

IC50 [5]: 12 µM (active)
Compound: Cc1ccccc1N(C)S(=O)(=O)c1ccc2ncc(C(=O)NCC3CCCO3)c(O)c2c1 (stereo not drawn)

IC50 [5]: 12.9 µM (active)
Compound: CN1CCCN(c2ncnc3scc(-c4ccc(F)cc4)c23)CC1

EC50 [6]: 3.35 µM (active)
Compound: O=c1c2ccccc2nc(SCc2ccccc2)n1CC1CCCO1 (stereo not drawn)

Compound: CC(C)=CCc1c(C)cc2cc3c(c(O)c2c1O)C(=O)C=C(O)C3(CC=C(C)C)C/C=C(\C)CO (stereo not drawn)
GI50 (P388/ADR): 20.1 µM (inactive)
GI50 (SN12K1): 35.2 µM (inactive)
GI50 (P388): 23.5 µM (inactive)

Compound: COC(=O)c1ccc2c(c1)C(=O)/C(=C/c1ccc(C)cc1)O2
EC50 [3]: 16.8 µM (active)
EC50 [4]: 17.2 µM (active)

Compound: CNC(=O)SCC(NC(=O)CCC(N)C(=O)O)C(=O)NCC(=O)O (stereo not drawn)
GI50 (P388/ADR): 26.4 µM (inactive)
GI50 (SN12K1): > 59.2 µM (inactive)
GI50 (P388): 27.5 µM (inactive)

Compound: OCC1CCC(n2cnc3c(O)ncnc32)O1 (stereo not drawn)
GI50 (P388/ADR): > 100 µM (inactive)
GI50 (SN12K1): > 100 µM (inactive)
GI50 (P388): > 100 µM (inactive)
